Earlier results on two compounds are cited in US7045323B2 (priority 1999, dated 2006).

Structures are written as SMILES.

Series [1] deals with HIV reverse transcription process.
Series [2] relates to proviral DNA load. The following applies: murine model of immunodeficiency; first stage of infection.

Take `N[C@@H](CCC(=O)N[C@@H](CS)C(=O)NCC(=O)O)C(=O)O` [GSH, glutathione]: the “inhibition of the HIV reverse transcription process” value in series [1] is recorded as “can inhibit”. In series [2], the “proviral DNA load” value is given as “able to decrease the proviral DNA load”.
As for `CC(=O)N[C@@H](CS)C(=O)O` [N-acetylcysteine], in series [1], the “inhibition of the HIV reverse transcription process” value is reported as “can inhibit”.
